# Data from patent US8613927B2, “High affinity human antibodies to human nerve growth factor” (Regeneron Pharmaceuticals, Inc., priority 2007, dated 2013).
# Key:
# [1] = target: T1, human NT-3 binding to human TrkA-hFc (Homo sapiens, UniProt P20783); test: BIACORE, NT-3 binding to TrkA-hFc surface in presence of antibody; details: 20 nM NT-3 + 500 nM sample; normalized to IgG1 control
# T1 sequence (P20783 139-257): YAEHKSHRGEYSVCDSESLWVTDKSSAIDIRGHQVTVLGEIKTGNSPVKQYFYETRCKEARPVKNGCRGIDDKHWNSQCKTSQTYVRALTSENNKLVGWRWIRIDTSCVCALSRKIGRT
# Description: (§1) Human TrkA-hFc (9300 RU), human TrkB-hFc (6000 RU), human TrkC-hFc (9100 RU) and human p75-hFc (7500 RU) were covalently coupled to BIACORE® CM5 chip surfaces by amine-coupling procedure. […] The binding mixture was first incubated at room temperature to reach equilibrium (about 1 hr) and then was injected over the above TrkA-hFc, TrkB-hFc, TrkC-hFc and p75-hFc surfaces. The level of human NT-3 binding in each sample was measured. The binding RU from each sample mixture was normalized according to the RU value from the negative control sample (i.e., 20 nM human NT-3 with 500 nM AVASTIN®) and presented as % binding to Trk surfaces (Table 9).
# [2] = target: T2, human NT-3 binding to human p75-hFc (Homo sapiens, UniProt P20783); test: BIACORE, NT-3 binding to p75-hFc surface in presence of antibody; details: 20 nM NT-3 + 500 nM sample; normalized to IgG1 control
# T2 sequence (P20783 139-257): T1 sequence (P20783 139-257)
# Description: as §1
# C57BL/6 mice = test: Post-operative incision pain model, mechanical allodynia in von Frey test; type: in vivo, mouse; details: Table 17
# Description: Thermal hyperalgesia was studied in the Hargreaves' test and mechanical allodynia was tested in the von Frey test. In this latter test, mice were tested after being acclimated for 2-3 hours for 4 days in an apparatus with a wire mesh floor. The test was performed by applying, in ascending order, a series of von Frey hairs through the wire mesh onto the plantar surface of the hind paw with the incision. A response was considered positive if the paw was raised from the platform in response to application of the filament. Starting from the thinnest hair, each von Frey filament was applied up to five times until a response was observed.
# C57BL/6 male mice = test: Seltzer model of neuropathic pain, Hargreaves' test; type: in vivo, mouse
# Text: Neuropathic pain. The mouse Seltzer model of neuropathic pain (Malmberg et al. (1998) Pain 76:215-222) was used with C57BL/6 male mice, in which a partial nerve injury was produced by tying a tight ligature with a 7-0 silk suture around approximately ⅓ to ½ the diameter of the sciatic nerve of one single thigh per mouse. Post-surgery, the mice were allowed to recover for at least two days and then they were studied for several weeks post-surgery for thermal hyperalgesia in the Hargreaves' test. Controls were sham-operated mice in which the sciatic nerve was exposed and elevated but not tied. Following surgery, the mice were tested at day […] and at day 7 post-surgery to confirm that the thermal hyperalgesia had developed.
# Following the Seltzer surgery, mice were tested at days 5 and 7 post-surgery to confirm that the thermal hyperalgesia had developed.
substance,measurement,setting,value
"IgG1 Control: negative binding control, IgG1 control (AVASTIN®; Genentech, CA)",% binding to TrkA-hFc surface,[1],100%
same,% binding to p75-hFc surface,[2],100%
same,Paw Withdrawal Threshold,"C57BL/6 mice; 25 mg/kg i.p. on day 1 post-surgery, Baseline",1.314 ± 0.137 g
same,Paw Withdrawal Threshold,"C57BL/6 mice; 25 mg/kg i.p., 5 hr after treatment",0.011 ± 0.002 g
same,Paw Withdrawal Threshold,"C57BL/6 mice; 25 mg/kg i.p., 22 hr after treatment",0.029 ± 0.004 g
same,Paw Withdrawal Threshold,"C57BL/6 mice; 25 mg/kg i.p., 45 hr after treatment",0.190 ± 0.135 g
same,Paw Withdrawal Threshold,"C57BL/6 mice; 25 mg/kg i.p., 70 hr after treatment",0.194 ± 0.034 g
same,Paw Withdrawal Threshold,"C57BL/6 mice; 25 mg/kg i.p., Day 1 (post-surgery, before injection)",0.011 ± 0.002 g
same,pain relief,"C57BL/6 male mice; 50 mg/kg s.c. or i.p. at day 7 post-surgery, p<0.001-0.05",no effect
same,mean percent change from Hargreaves baseline,"C57BL/6 male mice; Table 23, Seltzer, 100 mg/kg s.c. at day 7, day 0 after surgery",0.0 ± 0.0%
same,mean percent change from Hargreaves baseline,"C57BL/6 male mice; Table 23, Seltzer, 100 mg/kg s.c. at day 7, day 4",−46.9 ± 6.5%
same,mean percent change from Hargreaves baseline,"C57BL/6 male mice; Table 23, Seltzer, 100 mg/kg s.c. at day 7, day 7",−55.3 ± 6.4%
same,mean percent change from Hargreaves baseline,"C57BL/6 male mice; Table 23, Seltzer, 100 mg/kg s.c. at day 7, day 8",−55.6 ± 4.3%
same,mean percent change from Hargreaves baseline,"C57BL/6 male mice; Table 23, Seltzer, 100 mg/kg s.c. at day 7, day 11",−57.3 ± 5.1%
same,mean percent change from Hargreaves baseline,"C57BL/6 male mice; Table 23, Seltzer, 100 mg/kg s.c. at day 7, day 13",−59.7 ± 6.5%
same,mean percent change from Hargreaves baseline,"C57BL/6 male mice; Table 23, Seltzer, 100 mg/kg s.c. at day 7, day 16",−51.2 ± 4.0%
same,mean percent change from Hargreaves baseline,"C57BL/6 male mice; Table 23, Seltzer, 100 mg/kg s.c. at day 7, day 18",−57.7 ± 4.6%
same,mean percent change from Hargreaves baseline,"C57BL/6 male mice; Table 23, Seltzer, 100 mg/kg s.c. at day 7, day 20",−53.2 ± 4.9%
same,mean percent change from Hargreaves baseline,"C57BL/6 male mice; Table 23, Seltzer, 100 mg/kg s.c. at day 7, day 24",−54.9 ± 4.1%
same,mean percent change from Hargreaves baseline,"C57BL/6 male mice; Table 23, Seltzer, 100 mg/kg s.c. at day 7, day 28",−51.81 ± 4.1%
same,mean percent change from Hargreaves baseline,"C57BL/6 male mice; Table 23, Seltzer, 100 mg/kg s.c. at day 7, day 31",−49.7 ± 2.5%
same,mean percent change from Hargreaves baseline,"C57BL/6 male mice; Table 23, Sham-operated, 100 mg/kg s.c. at day 7, day 0 after surgery",0.0 ± 0.0%
same,mean percent change from Hargreaves baseline,"C57BL/6 male mice; Table 23, Sham, 100 mg/kg s.c. at day 7, day 4",−7.2 ± 3.7%
same,mean percent change from Hargreaves baseline,"C57BL/6 male mice; Table 23, Sham, 100 mg/kg s.c. at day 7, day 7",8.7 ± 13.2%
same,mean percent change from Hargreaves baseline,"C57BL/6 male mice; Table 23, Sham, 100 mg/kg s.c. at day 7, day 8",−9.4 ± 4.1%
same,mean percent change from Hargreaves baseline,"C57BL/6 male mice; Table 23, Sham, 100 mg/kg s.c. at day 7, day 11",14.7 ± 11.4%
same,mean percent change from Hargreaves baseline,"C57BL/6 male mice; Table 23, Sham, 100 mg/kg s.c. at day 7, day 13",−6.9 ± 3.3%
same,mean percent change from Hargreaves baseline,"C57BL/6 male mice; Table 23, Sham, 100 mg/kg s.c. at day 7, day 16",2.3 ± 3.0%
same,mean percent change from Hargreaves baseline,"C57BL/6 male mice; Table 23, Sham, 100 mg/kg s.c. at day 7, day 18",0.2 ± 2.8%
same,mean percent change from Hargreaves baseline,"C57BL/6 male mice; Table 23, Sham, 100 mg/kg s.c. at day 7, day 20",3.6 ± 2.4%
same,mean percent change from Hargreaves baseline,"C57BL/6 male mice; Table 23, Sham, 100 mg/kg s.c. at day 7, day 24",1.5 ± 2.9%
same,mean percent change from Hargreaves baseline,"C57BL/6 male mice; Table 23, Sham, 100 mg/kg s.c. at day 7, day 28",0.7 ± 2.5%
same,mean percent change from Hargreaves baseline,"C57BL/6 male mice; Table 23, Sham, 100 mg/kg s.c. at day 7, day 31",1.1 ± 2.3%
same,mean percent change from Hargreaves baseline,"C57BL/6 male mice; Table 24, 100 mg/kg s.c. injected Day 7 post-surgery, Baseline",0.0 ± 0.0%
same,mean percent change from Hargreaves baseline,"C57BL/6 male mice; Table 24, 100 mg/kg s.c. injected Day 14 post-surgery, Baseline",0.0 ± 0.0%
same,mean percent change from Hargreaves baseline,"C57BL/6 male mice; Table 24, 100 mg/kg s.c. injected Day 21 post-surgery, Baseline",0.0 ± 0.0%
same,mean percent change from Hargreaves baseline,"C57BL/6 male mice; Table 24, injected Day 7, Day 5 after surgery",−53.5 ± 5.9%
same,mean percent change from Hargreaves baseline,"C57BL/6 male mice; Table 24, injected Day 7, Day 8",−56.7 ± 3.8%
same,mean percent change from Hargreaves baseline,"C57BL/6 male mice; Table 24, injected Day 7, Day 10",−64.3 ± 2.6%
same,mean percent change from Hargreaves baseline,"C57BL/6 male mice; Table 24, injected Day 7, Day 14",−66.9 ± 5.1%
same,mean percent change from Hargreaves baseline,"C57BL/6 male mice; Table 24, injected Day 7, Day 15",−60.6 ± 4.0%
same,mean percent change from Hargreaves baseline,"C57BL/6 male mice; Table 24, injected Day 7, Day 17",−58.9 ± 3.5%
same,mean percent change from Hargreaves baseline,"C57BL/6 male mice; Table 24, injected Day 7, Day 21",−54.1 ± 9.6%
same,mean percent change from Hargreaves baseline,"C57BL/6 male mice; Table 24, injected Day 7, Day 22",−56.3 ± 4.9%
same,mean percent change from Hargreaves baseline,"C57BL/6 male mice; Table 24, injected Day 7, Day 24",−55.6 ± 5.1%
same,mean percent change from Hargreaves baseline,"C57BL/6 male mice; Table 24, injected Day 7, Day 28",−54.1 ± 3.5%
same,mean percent change from Hargreaves baseline,"C57BL/6 male mice; Table 24, injected Day 7, Day 32",−41.9 ± 8.3%
